Laboratory results from patent US8530473B2, “Tetrahydroquinoxaline urea derivatives as modulators of 11β-hydroxysteroid dehydrogenase type 1” (Sanofi, priority 2009, dated 2013).
Structures can show the parent of a compound that is named as a salt.

How the values were obtained:
[1] = target: T1, 11βHSD1 (Homo sapiens, UniProt P28845); experiment: 11βHSD1 Scintillation Proximity Assay (SPA), 384-well format; assay type: biochemical; conditions: recombinant 11βHSD1 produced in S. cerevisiae; 3H-cortisone and NADPH; cortisol formed measured by SPA
T1 construct: made in house; host or cells: S. cerevisiae yeast
T1 sequence (P28845 whole entry): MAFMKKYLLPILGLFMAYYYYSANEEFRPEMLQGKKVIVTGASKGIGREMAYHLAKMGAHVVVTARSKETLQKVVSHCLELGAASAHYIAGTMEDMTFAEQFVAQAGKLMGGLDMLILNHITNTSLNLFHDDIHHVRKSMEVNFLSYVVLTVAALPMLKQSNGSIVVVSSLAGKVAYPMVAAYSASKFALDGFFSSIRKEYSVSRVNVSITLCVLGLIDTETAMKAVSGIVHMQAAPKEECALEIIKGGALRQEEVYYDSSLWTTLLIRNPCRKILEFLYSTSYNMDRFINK
Method: The compounds according to the invention have undergone pharmacological tests for determining their inhibitory effect on the enzyme 11βHSD1, which is involved in lipid metabolism and in glucose metabolism.
These tests consisted of measuring the inhibitory activity in vitro of compounds of the invention on the enzyme 11βHSD1 using a Scintillation Proximity Assay (SPA) in 384-well format. The recombinant 1βHSD1 protein was produced in S. cerevisiae yeast. The reaction was carried out by incubating the enzyme in the presence of ^3H-cortisone and NADPH, in the absence or in the presence of increasing concentration of inhibitor. SPA beads coupled to an antimouse antibody, preincubated with an anticortisol antibody, made it possible to measure the amount of cortisol formed during the reaction.
The inhibitory activity with respect to the enzyme 11βHSD1 is given by the concentration that inhibits 50% of the activity of 11βHSD1 (IC50).

[2] = test system: healthy volunteers; conditions: after seven days of treatment, healthy volunteers (Rauz et al. 2001); cited from earlier work

Row | SMILES | melting point [°C] | IC50 [1] [nM] | IOP is reduced by [2] [%]
1 | NC(=O)C12CC3CC(C1)C(NC(=O)N1CCN(c4ccc(N5CCC(N6CCC[C@@H]6CO)CC5)cn4)c4ccccc41)C(C3)C2 (stereo in doubt) [Compound 6, Trans 4-[4-((R)-2-hydroxymethyl-pyrrolidin-1-yl)-3,4,5,6-tetrahydro-2H-[1,3′]bipyridinyl-6′-yl]-3,4-dihydro-2H-quinoxaline-1-carboxylic acid (5-carbamoyl-adamantan-2-yl)-amide] | – | 4 | –
2 | NC(=O)C12CC3CC(C1)C(NC(=O)N1CCN(c4ccc(N5CCC(N6CCC[C@H]6CO)CC5)cn4)c4ccccc41)C(C3)C2 (stereo in doubt) [Compound 7, Trans 4-[4-((S)-2-hydroxymethyl-pyrrolidin-1-yl)-3,4,5,6-tetrahydro-2H-[1,3′]bipyridinyl-6′-yl]-3,4-dihydro-2H-quinoxaline-1-carboxylic acid (5-carbamoyl-adamantan-2-yl)-amide] | – | 3 | –
3 | NC(=O)C12CC3CC(C1)C(NC(=O)N1CCN(c4ccc(N5CCC(N6CC[C@H](O)C6)CC5)cn4)c4ccccc41)C(C3)C2 (stereo in doubt) [Compound 8, Trans 4-[4-((S)-3-hydroxy-pyrrolidin-1-yl)-3,4,5,6-tetrahydro-2H-[1,3′]bipyridinyl-6′-yl]-3,4-dihydro-2H-quinoxaline-1-carboxylic acid (5-carbamoyl-adamantan-2-yl)-amide] | – | 6 | –
4 | C[Si](C)(C)CN1CCN(c2ccc(N3CCN(C(=O)NC4C5CC6CC4CC(O)(C6)C5)c4ccccc43)nc2)CC1 (stereo not drawn) [Compound 1, Trans 4-[5-(4-trimethylsilanylmethyl-piperazin-1-yl)-pyridin-2-yl]-3,4-dihydro-2H-quinoxaline-1-carboxylic acid (5-hydroxy-adamantan-2-yl)-amide] | – | 7 | –
5 | CC(C)(C)ON=C1CCN(c2ccc(N3CCN(C(=O)N[C@H]4C5CC6CC4C[C@@](O)(C6)C5)c4ccccc43)nc2)CC1 [Compound 2, Trans 4-(4-tert-butoxyimino-3,4,5,6-tetrahydro-2H-[1,3′]bipyridinyl-6′-yl)-3,4-dihydro-2H-quinoxaline-1-carboxylic acid (5-hydroxy-adamantan-2-yl)-amide] | 110 to 113 | 23 | –
6 | C[Si](C)(C)CCS(=O)(=O)N1CCN(c2ccc(N3CCN(C(=O)NC4C5CC6CC4CC(O)(C6)C5)c4ccccc43)nc2)CC1 (stereo not drawn) [Compound 3, Trans 4-{5-[4-(2-trimethylsilanyl-ethanesulfonyl)-piperazin-1-yl]-pyridin-2-yl}-3,4-dihydro-2H-quinoxaline-1-carboxylic acid (5-hydroxy-adamantan-2-yl)-amide] | 107 to 120 | 10 | –
7 | C[Si]1(c2ccccc2)CCN(c2ccc(N3CCN(C(=O)N[C@H]4C5CC6CC4C[C@@](C(N)=O)(C6)C5)c4ccccc43)nc2)CC1 [Compound 13, Trans 4-[5-(4-methyl-4-phenyl-[1,4]azasilinan-1-yl)-pyridin-2-yl]-3,4-dihydro-2H-quinoxaline-1-carboxylic acid (5-carbamoyl-adamantan-2-yl)-amide] | 106 to 108 | 25 | –
8 | CC1(C)[C@@H](OC(=O)CCC(=O)O)CC[C@]2(C)[C@H]3C(=O)C=C4[C@@H]5C[C@@](C)(C(=O)O)CC[C@]5(C)CC[C@@]4(C)[C@]3(C)CC[C@@H]12 [carbenoxolone] | – | – | 18

More lines, main results first:

Row | melting point [°C] | IC50 [1] [nM] | SMILES | IOP is reduced by [2] [%]
9 | 191 | – | NC(=O)[C@]12CC3CC(C1)[C@H](NC(=O)N1CCN(c4ccc(N5CCC(N6CC[C@@H](O)C6)CC5)cn4)c4ccccc41)C(C3)C2 (as salt: HCl) [Compound 9, Trans 4-[4-((R)-3-hydroxy-pyrrolidin-1-yl)-3,4,5,6,-tetrahydro-2H-[1,3′]bipyridinyl-6′-yl]-3,4-dihydro-2H-quinoxaline-1-carboxylic acid (5-carbamoyl-adamantan-2-yl)-amide] | –
10 | 196 | – | NC(=O)C12CC3CC(C1)C(NC(=O)N1CCN(c4ccc(N5CCC(N6CCC(F)(F)C6)CC5)cn4)c4ccccc41)C(C3)C2 (stereo not drawn) (as salt: HCl) [Compound 10, Trans 4-[4-(3,3-difluoro-pyrrolidin-1-yl)-3,4,5,6-tetrahydro-2H-[1,3′]bipyridinyl-6′-yl]-3,4-dihydro-2H-quinoxaline-1-carboxylic acid (5-carbamoyl-adamantan-2-yl)-amide] | –
11 | 206 | 3 | NC(=O)[C@]12CC3CC(C1)[C@H](NC(=O)N1CCN(c4ccc(N5CCN(CC6CC6(F)F)CC5)cn4)c4ccccc41)C(C3)C2 (stereo partly drawn) [Compound 4, Trans 4-{5-[4-(2,2-difluoro-cyclopropylmethyl)-piperazin-1-yl]-pyridin-2-yl}-3,4-dihydro-2H-quinoxaline-1-carboxylic acid (5-carbamoyl-adamantan-2-yl)-amide] | –
12 | 160 to 200 | 4 | NC(=O)[C@]12CC3CC(C1)[C@H](NC(=O)N1CCN(c4ccc(N5CCC(N6CCS(=O)(=O)CC6)CC5)cn4)c4ccccc41)C(C3)C2 [Compound 5, Trans 4-[4-(1,1-dioxo-1lambda6-thiomorpholin-4-yl)-3,4,5,6-tetrahydro-2H-[1,3′]bipyridinyl-6′-yl]-3,4-dihydro-2H-quinoxaline-1-carboxylic acid (5-carbamoyl-adamantan-2-yl)-amide] | –
13 | – | 2 | NC(=O)[C@]12CC3CC(C1)[C@H](NC(=O)N1CCN(c4ccc(N5CCC(N6CC[C@@H](O)C6)CC5)cn4)c4ccccc41)C(C3)C2 [Compound 9, Trans 4-[4-((R)-3-hydroxy-pyrrolidin-1-yl)-3,4,5,6,-tetrahydro-2H-[1,3′]bipyridinyl-6′-yl]-3,4-dihydro-2H-quinoxaline-1-carboxylic acid (5-carbamoyl-adamantan-2-yl)-amide] | –
14 | – | 2 | NC(=O)C12CC3CC(C1)C(NC(=O)N1CCN(c4ccc(N5CCC(N6CCC(F)(F)C6)CC5)cn4)c4ccccc41)C(C3)C2 (stereo not drawn) [Compound 10, Trans 4-[4-(3,3-difluoro-pyrrolidin-1-yl)-3,4,5,6-tetrahydro-2H-[1,3′]bipyridinyl-6′-yl]-3,4-dihydro-2H-quinoxaline-1-carboxylic acid (5-carbamoyl-adamantan-2-yl)-amide] | –
15 | 134 to 170 | 3 | Cl.NC(=O)[C@]12CC3CC(C1)[C@H](NC(=O)N1CCN(c4ccc(N5CCC6(CC5)CC6(F)F)cn4)c4ccccc41)C(C3)C2 [Compound 11, Trans 4-[5-(1,1-difluoro-6-aza-spiro[2.5]oct-6-yl)-pyridin-2-yl]-3,4-dihydro-2H-quinoxaline-1-carboxylic acid (5-carbamoyl-adamantan-2-yl)-amide] | –
16 | 145 to 160 | 6 | NC(=O)[C@]12CC3CC(C1)[C@H](NC(=O)N1CCN(c4ccc(N5CCC6(CC5)CC6C(=O)O)cn4)c4ccccc41)C(C3)C2 (stereo partly drawn) [Compound 12, trans-6-{6-[4-(5-Carbamoyl-adamantan-2-ylcarbamoyl)-3,4-dihydro-2H-quinoxalin-1-yl]-pyridin-3-yl}-6-aza-spiro[2.5]octane-1-carboxylic acid] | –
17 | 213 to 216 | 12 | C[Si]1(C)CCN(c2ccc(N3CCN(C(=O)NC4C5CC6CC4CC(C(N)=O)(C6)C5)c4ccccc43)nc2)CC1 (stereo not drawn) [Compound 14, Trans 4-[5-(4,4-dimethyl-[1,4]azasilinan-1-yl)-pyridin-2-yl]-3,4-dihydro-2H-quinoxaline-1-carboxylic acid (5-carbamoyl-adamantan-2-yl)-amide] | –
